Columns and labels:
[1] = target: T1, PRKACA (Homo sapiens, UniProt P17612); test: PRKACA assay at Km (EZ Reader 2 electrophoretic mobility shift); assay type: biochemical; conditions: 5 μM ATP (Km), 1 μM Kemptide, 90 minutes at 25 C; read-out: Enz PRKACA IC50
T1 construct: purchased Millipore 539482
Method: (§1) A Perkin Elmer electrophoretic mobility shift platform (the EZ Reader 2) was used to assess the activity of test compounds against a kinase of interest. Fluorescently labeled substrate peptide was incubated in the presence of kinase, ATP, and the test compound, so that a portion of the peptide was phosphorylated by the enzyme. At the end of the reaction, the mix of phosphorylated (product) and non-phosphorylated (substrate) peptide containing solutions was passed through the microfluidic system of the Perkin Elmer EZ Reader 2 under an applied potential difference. The presence of the phosphate group on the product peptide provided a difference in mass and charge between those of the substrate peptide, resulting in a separation of the substrate and product pools in the sample. As the stopped solutions passed under the instrument's LED light the phosphorylated and un-phosphorylated fluorophore bound peptides were detected and resolved as separate peaks. The ratio between these peaks therefore reflected the test compound's impact on the kinase at that concentration in that well under those conditions.
PRKACA assay at Km: In each well of a 384-well plate, 0.007 ng/ul (0.18 nM) of PRKACA enzyme (Millipore: 539482) was incubated in a total of 12.5 μl of buffer (100 mM HEPES pH 7.5, 0.015% Brij 35, 10 mM MgCl2, 1 mM DTT) with 1 μM Kemptide peptide substrate (5-FAM-LRRASLG) (Anaspec 29933) and 5 μM ATP at 25 C for 90 minutes in the presence or absence of a dosed concentration series of test compounds (1% DMSO final concentration). The reaction was stopped by the addition of 80 μl of Stop buffer (100 mM HEPES pH 7.5, 0.015% Brij 35, 35 mM EDTA and 0.2% of Coating Reagent 3 (Perkin Elmer)). The plate was then read on the EZ Reader 2 (protocol settings: −2.0 psi, upstream voltage −700, downstream voltage −2700, post sample sip 60 seconds). Data was normalized to 0% and 100% inhibition controls and the IC50 calculated using a 4-parameter fit using GraphPad Prism.

[2] = target: T2, PRKACA-DNAJB1 (Homo sapiens, UniProt P17612); test: PRKACA-DNAJB1 enzyme assay (EZ Reader 2 electrophoretic mobility shift); assay type: biochemical; conditions: read-out: Enz PRKACA-DNAJB1 IC50
T2 construct: DNAJB1 (fusion partner, P25685); the other entry of the earlier key: DNAJB1 (P25685, DnaJ homolog subfamily B member 1)
Method: as §1

[3] = system: PKA (phosphorylation of VASP on Serine 157); test: Cellular potency assay: P-VASP(157) HTRF in Forskolin-stimulated Huh7 cells; assay type: cell-based; conditions: Homo sapiens, Huh-7, 4 hours compound, 5 μM Forskolin 30 minutes, read-out: Phos VASP(S157) IC50
Excerpt: PKA directly phosphorylate VASP on Serine 157. Phosphorylation of VASP on Serine 157. P-VASP(157) was therefore used as a readout of PKA cellular activity. P-VASP(157) was detected with a HTRF assay, which is based on a TR-FRET sandwich immunoassay-based format comprising two specific anti-VASP antibodies following the manufactors protocol (Cisbio, Catalog No. 63ADK066PEH). PKA was activated in the assay by the addition of Forskolin (Sigma-Aldrich, Catalog No. F3917).
Dose response in Forskolin-stimulated human Huh7 cells was measured as follows. Briefly, Huh7 cells were plated at a density of 2×10^4 cells per well in a 384-well opti-well cell culture plate in 15 μl of serum- and phenol-free Dulbecco's Modified Eagle Medium (DMEM, Gibco Catalog No. 21063-029), and incubated for over night at 37° C., 5% CO2. The next day, 3 μl of a dosed concentration series of test compound (0.24%) DMSO final concentration) was added to the wells, and the cells were incubated for an additional 4 hours at 37° C., 5% CO2. 2 μl of Forskolin was added at a final concentration of 5 μM and the plates were incubated for 30 minutes at 37° C., 5% CO2. 5 μl of lysis buffer containing 1% HALT protease cocktail inhibitors (ThermoFisher, Catalog No. 78430), was added to the cells and the mixture was incubated under gentle shaking for 30 min at room temperature. 10 μl of this lysate was transferred to a 384-well proxi plate and 2.5 μL of the premixed antibody solution was added. An antibody solution was prepared by combining phopho-VASP cryptate antibody and phospho-VASP d2 antibody, at twenty-fold dilution into a buffer solution following the manufactors' protocol. The lysate and antibody mixture was incubated for either 3 h at room temperature or overnight at 4° C. The fluorescence emission at two different wavelengths (665 nm and 620 nm) was read on an EnVision instrument.

`O=C(N[C@H]1C[C@@H](O)c2cccc(F)c21)c1ccc(-c2ccnc3[nH]ccc23)nc1` (single isomer, unassigned) [Compound 119] gave an IC50 [1] of at most 1 nM, an IC50 [2] of 1.01 to 5 nM and an IC50 [3] of over 100 nM.

For `O=C(N[C@H]1CCc2cc(C(F)F)ccc21)c1ccc(-c2ccnc3[nH]ccc23)cc1` (single isomer, unassigned) [Compound 125], the IC50 [1] was at most 1 nM, the IC50 [2] was at most 1 nM and the IC50 [3] was under 50 nM.

`C[C@H]1Oc2cccc(F)c2[C@@H](NC(=O)c2ccc(-c3ccnc4[nH]ccc34)nc2)[C@H]1O` (single isomer, unassigned) [Compound 136] gave an IC50 [1] of at most 1 nM, an IC50 [2] of at most 1 nM and an IC50 [3] of 0.01 to 100 nM.

Compound `Cc1c[nH]c2nccc(-c3ccc(C(=O)N[C@@H]4c5c(F)cc(C(F)F)cc5OCC4O)cn3)c12` (single isomer, unassigned) [Compound 171] has an IC50 [1] of at most 1 nM, an IC50 [2] of at most 1 nM and an IC50 [3] of under 50 nM.

`Cc1c[nH]c2nccc(-c3ccc(C(=O)N[C@@H]4c5c(F)cc(C(F)F)cc5OCC4O)cn3)c12` (single isomer, unassigned) [Compound 172] gave an IC50 [1] of at most 1 nM, an IC50 [2] of at most 1 nM and an IC50 [3] of under 50 nM.

`N[C@@H]1Cc2ccccc2[C@H]1NC(=O)c1ccc(-c2ccnc3[nH]ccc23)cc1` [Compound 100, N-[(1R,2R)-2-Amino-2,3-dihydro-1H-inden-1-yl]-4-{1H-pyrrolo[2,3-b]pyridin-4-yl}benzamide] gave an IC50 [1] of at most 1 nM, an IC50 [2] of at most 1 nM and an IC50 [3] of under 50 nM.

`O=C(N[C@@H]1c2ccccc2C[C@@H]1O)c1ccc(-c2ccnc3[nH]ccc23)cc1` [Compound 101, N-[(1R,2S)-2-Hydroxy-2,3-dihydro-1H-inden-1-yl]-4-{1H-pyrrolo[2,3-b]pyridin-4-yl}benzamide] was tested, and the IC50 [1] was at most 1 nM, the IC50 [2] was at most 1 nM and the IC50 [3] was under 50 nM.

In the case of `O=C(N[C@@H]1c2ccccc2C[C@H]1O)c1ccc(-c2ccnc3[nH]ccc23)cc1` [Compound 102], the IC50 [1] is reported as at most 1 nM, the IC50 [2] is reported as at most 1 nM and the IC50 [3] is reported as 0.01 to 100 nM.

With `O=C(N[C@H]1CCOc2ccccc21)c1ccc(-c2ccnc3[nH]ccc23)cc1` [Compound 103] the IC50 [1] was at most 1 nM, the IC50 [2] was at most 1 nM and the IC50 [3] was under 50 nM.

Work on `O=C(N[C@@H]1c2ccccc2C[C@H]1F)c1ccc(-c2ccnc3[nH]ccc23)cc1` [Compound 104, N-((1R,2R)-2-Fluoro-2,3-dihydro-1H-inden-1-yl)-4-(1H-pyrrolo[2,3-b]pyridin-4-yl)benzamide] yielded an IC50 [1] of at most 1 nM, an IC50 [2] of at most 1 nM and an IC50 [3] of 0.01 to 100 nM.

In the case of `Cc1c[nH]c2nccc(-c3ccc(C(=O)N[C@@H]4c5ccccc5C[C@H]4O)cc3)c12` [Compound 107, N-[(1R,2R)-2-Hydroxy-2,3-dihydro-1H-inden-1-yl]-4-{3-methyl-1H-pyrrolo[2,3-b]pyridin-4-yl}benzamide], the IC50 [1] is reported as at most 1 nM, the IC50 [2] is reported as at most 1 nM and the IC50 [3] is reported as under 50 nM.

Work on `C[C@@H]1C[C@H](NC(=O)c2ccc(-c3ccnc4[nH]ccc34)cc2)c2ccccc2O1` [Compound 109] yielded an IC50 [1] of at most 1 nM, an IC50 [2] of at most 1 nM and an IC50 [3] of under 50 nM.

`O=C(N[C@@H]1c2ccccc2OC[C@@H]1O)c1ccc(-c2ccnc3[nH]ccc23)cc1` [Compound 110, N-[(3R,4R)-3-Hydroxy-3,4-dihydro-2H-1-benzopyran-4-yl]-4-{1H-pyrrolo[2,3-b]pyridin-4-yl}benzamide] was tested, and the IC50 [1] was at most 1 nM, the IC50 [2] was at most 1 nM and the IC50 [3] was under 50 nM.

`O=C(N[C@@H]1c2ccccc2C[C@H]1O)c1ccc(-c2ccnc3[nH]cc(F)c23)cc1` [Compound 111] was tested, and the IC50 [1] was at most 1 nM, the IC50 [2] was at most 1 nM and the IC50 [3] was under 50 nM.

`O=C(N[C@@H]1c2ccccc2C[C@@H]1O)c1ccc(-c2ccnc3[nH]cc(F)c23)cc1` [Compound 112, 4-(3-Fluoro-1H-pyrrolo[2,3-b]pyridin-4-yl)-N-((1R,2S)-2-hydroxy-2,3-dihydro-1H-inden-1-yl)benzamide] showed an IC50 [1] of at most 1 nM, an IC50 [2] of at most 1 nM and an IC50 [3] of 0.01 to 100 nM.

For `O=C(N[C@H]1CCOc2cc(F)ccc21)c1ccc(-c2ccnc3[nH]ccc23)cc1` [Compound 113], the IC50 [1] was at most 1 nM, the IC50 [2] was 1.01 to 5 nM and the IC50 [3] was 0.01 to 100 nM.

`O=C(N[C@H]1CCOc2ccc(F)cc21)c1ccc(-c2ccnc3[nH]ccc23)cc1` [Compound 114] was tested, and the IC50 [1] was at most 1 nM, the IC50 [2] was at most 1 nM and the IC50 [3] was under 50 nM.

In the case of `O=C(N[C@H]1CCOc2ccccc21)c1ccc(-c2ccnc3[nH]cc(F)c23)cc1` [Compound 115], the IC50 [1] is reported as at most 1 nM, the IC50 [2] is reported as at most 1 nM and the IC50 [3] is reported as under 50 nM.

With `O=C(N[C@H]1CCOc2cccc(F)c21)c1ccc(-c2ccnc3[nH]ccc23)nc1` [Compound 117, (S)—N-(5-Fluorochroman-4-yl)-6-(1H-pyrrolo[2,3-b]pyridin-4-yl)nicotinamide] the IC50 [1] was at most 1 nM, the IC50 [2] was at most 1 nM and the IC50 [3] was under 50 nM.

With `CN(C)[C@@H]1Cc2ccccc2[C@H]1NC(=O)c1ccc(-c2ccnc3[nH]ccc23)cc1` [Compound 120, N-[(1R,2R)-2-(Dimethylamino)-2,3-dihydro-1H-inden-1-yl]-4-{1H-pyrrolo[2,3-b]pyridin-4-yl}benzamide] the IC50 [1] was at most 1 nM, the IC50 [2] was at most 1 nM and the IC50 [3] was under 50 nM.

Compound `Cc1c[nH]c2nccc(-c3ccc(C(=O)N[C@H]4CCOc5cccc(F)c54)cn3)c12` [Compound 121, (S)—N-(5-Fluorochroman-4-yl)-6-(3-methyl-1H-pyrrolo[2,3-b]pyridin-4-yl)nicotinamide] has an IC50 [1] of at most 1 nM, an IC50 [2] of 1.01 to 5 nM and an IC50 [3] of 0.01 to 100 nM.

With `O=C(N[C@@H]1c2ccccc2OC[C@@H]1O)c1ccc(-c2ccnc3[nH]cc(F)c23)cc1` [Compound 123] the IC50 [1] was at most 1 nM, the IC50 [2] was at most 1 nM and the IC50 [3] was under 50 nM.

Compound `O=C(N[C@@H]1c2c(F)cccc2OC[C@@H]1O)c1ccc(-c2ccnc3[nH]ccc23)nc1` [Compound 126, N-[(3R,4R)-5-Fluoro-3-hydroxy-3,4-dihydro-2H-1-benzopyran-4-yl]-6-{1H-pyrrolo[2,3-b]pyridin-4-yl}pyridine-3-carboxamide] has an IC50 [1] of at most 1 nM, an IC50 [2] of 1.01 to 5 nM and an IC50 [3] of under 50 nM.

With `O=C(N[C@@H]1c2c(F)cccc2OC[C@@H]1O)c1ccc(-c2ccnc3[nH]ccc23)cn1` [Compound 127] the IC50 [1] was at most 1 nM, the IC50 [2] was 1.01 to 5 nM and the IC50 [3] was under 50 nM.

`O=C(N[C@H]1CCOc2cccc(F)c21)c1ccc(-c2ccnc3[nH]cc(F)c23)cc1` [Compound 128] gave an IC50 [1] of at most 1 nM, an IC50 [2] of at most 1 nM and an IC50 [3] of under 50 nM.

In the case of `O=C(N[C@H]1CCOc2ccc(F)c(F)c21)c1ccc(-c2ccnc3[nH]ccc23)cc1` [Compound 129, N-[(4S)-5,6-Difluoro-3,4-dihydro-2H-1-benzopyran-4-yl]-4-{1H-pyrrolo[2,3-b]pyridin-4-yl}benzamide], the IC50 [1] is reported as at most 1 nM, the IC50 [2] is reported as at most 1 nM and the IC50 [3] is reported as under 50 nM.

`O=C(N[C@@H]1c2ccccc2C[C@H]1OCCO)c1ccc(-c2ccnc3[nH]ccc23)cc1` [Compound 134, N-[(1R,2R)-2-(2-Hydroxyethoxy)-2,3-dihydro-1H-inden-1-yl]-4-{1H-pyrrolo[2,3-b]pyridin-4-yl}benzamide] gave an IC50 [1] of at most 1 nM, an IC50 [2] of at most 1 nM and an IC50 [3] of under 50 nM.

`Cc1c[nH]c2nccc(-c3ccc(C(=O)N[C@@H]4c5c(F)cccc5OC[C@@H]4O)cn3)c12` [Compound 135] showed an IC50 [1] of at most 1 nM, an IC50 [2] of at most 1 nM and an IC50 [3] of 0.01 to 100 nM.

Reference: patent US12583856B2, “Inhibitors of protein kinase A” (Blueprint Medicines Corporation, priority 2021, dated 2026)
